According to the supplement of paper PMC6045584:
± gives the standard deviation of the averaged measurements.

Key:
Assay in all cases: surviving fraction relative to DMSO-only wells; higher = less growth inhibition
Settings in all cases: exposure time: 5 days
[1] = compound: CNC(=O)c1cc(Oc2ccc(NC(=O)Nc3ccc(Cl)c(C(F)(F)F)c3)cc2)ccn1 [SORAFENIB]
Method in brief: (§1)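 At 250–500 cells per well in 384-well plates, log-phase tumour cell lines were seeded and, 24 hours on, exposed continuously for five days to inhibitors at 0.5, 1, 5, 10, 50, 100, 500 and 1000 nM. Viability readout was CellTiter-Glo luminescence, reported as surviving fraction normalised to the median of DMSO-only wells.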

[2] = compound: Cn1nnc2c(C(N)=O)ncn2c1=O [TEMOZOLOMIDE]
Method in brief: as §1

[3] = compound: CNCc1ccc(-c2[nH]c3cc(F)cc4c3c2CCNC4=O)cc1
Method in brief: as §1

[4] = compound: O=C(c1cc(Cc2n[nH]c(=O)c3ccccc23)ccc1F)N1CCN(C(=O)C2CC2)CC1 [OLAPARIB]
Method in brief: as §1

[5] = compound: COc1cc2ncnc(Nc3ccc(F)c(Cl)c3)c2cc1NC(=O)/C=C/CN1CCCCC1
Method in brief: as §1

[6] = compound: CN1CCN(c2nc(C3=C(c4c[nH]c5ccccc45)C(=O)NC3=O)c3ccccc3n2)CC1 [SOTRASTAURIN/AEB071]
Method in brief: as §1

[7] = compound: NS(=O)(=O)OC[C@@H]1C[C@@H](n2ccc3c(N[C@H]4CCc5ccccc54)ncnc32)C[C@@H]1O [MLN-4924]
Method in brief: as §1

[8] = compound: C[C@]12CC[C@H](O)CC1=CC[C@@H]1[C@@H]2CC[C@]2(C)C(c3cccnc3)=CC[C@@H]12 [ABIRATERONE]
Method in brief: as §1

[9] = compound: Cc1nc(Nc2ncc(C(=O)Nc3c(C)cccc3Cl)s2)cc(N2CCN(CCO)CC2)n1 [DASATINIB]
Method in brief: as §1

[10] = compound: Oc1nc(-c2ccc(C(F)(F)F)cc2)nc2c1CSCC2 [XAV-939]
Method in brief: as §1

[11] = compound: CCn1c(C(=O)N(C2CC2)C2CC2)cc2c3c(ncn3C)c(Nc3cc(C)n(C)n3)nc21
Method in brief: as §1

[12] = compound: C[C@@H](Oc1cc(-c2cnn(C3CCNCC3)c2)cnc1N)c1c(Cl)ccc(F)c1Cl [CRIZOTINIB]
Method in brief: as §1

[13] = compound: COc1cc2c(Oc3ccc(NC(=O)C4(C(=O)Nc5ccc(F)cc5)CC4)cc3F)ccnc2cc1OCCCN1CCOCC1 [FORETINIB]
Method in brief: as §1

[14] = compound: C[C@@H](Oc1cc(-c2cnn(C3CCNCC3)c2)cnc1N)c1c(Cl)ccc(F)c1Cl
Method in brief: as §1

Test System: HS57T BREAST
- surviving fraction ([1]; 0.5 nM): 0.987 ± 0.058
- surviving fraction ([1]; 1 nM): 1.045 ± 0.0089
- surviving fraction ([1]; 5 nM): 1.05 ± 0.031
- surviving fraction ([1]; 10 nM): 1.082 ± 0.0081
- surviving fraction ([1]; 50 nM): 1.09 ± 0.057
- surviving fraction ([1]; 100 nM): 1.15 ± 0.084
- surviving fraction ([1]; 500 nM): 0.965 ± 0.059
- surviving fraction ([1]; 1000 nM): 0.951 ± 0.021
- surviving fraction ([2]; 0.5 nM): 0.907 ± 0.067
- surviving fraction ([2]; 1 nM): 0.947 ± 0.056
- surviving fraction ([2]; 5 nM): 1.01 ± 0.051
- surviving fraction ([2]; 10 nM): 1.04 ± 0.049
- surviving fraction ([2]; 50 nM): 1.02 ± 0.033
- surviving fraction ([2]; 100 nM): 1.03 ± 0.074
- surviving fraction ([2]; 500 nM): 0.93 ± 0.058
- surviving fraction ([2]; 1000 nM): 0.948 ± 0.071
- surviving fraction ([3]; 0.5 nM): 0.972 ± 0.021
- surviving fraction ([3]; 1 nM): 0.994 ± 0.063
- surviving fraction ([3]; 5 nM): 1.03 ± 0.09
- surviving fraction ([3]; 10 nM): 0.979 ± 0.055
- surviving fraction ([3]; 50 nM): 0.929 ± 0.077
- surviving fraction ([3]; 100 nM): 0.971 ± 0.06
- surviving fraction ([3]; 500 nM): 0.881 ± 0.03
- surviving fraction ([3]; 1000 nM): 0.865 ± 0.038
- surviving fraction ([4]; 0.5 nM): 1.09 ± 0.06
- surviving fraction ([4]; 1 nM): 1.11 ± 0.036
- surviving fraction ([4]; 5 nM): 1.09 ± 0.05
- surviving fraction ([4]; 10 nM): 1.13 ± 0.05
- surviving fraction ([4]; 50 nM): 1.1 ± 0.022
- surviving fraction ([4]; 100 nM): 1.04 ± 0.053
- surviving fraction ([4]; 500 nM): 0.999 ± 0.024
- surviving fraction ([4]; 1000 nM): 0.914 ± 0.067
- surviving fraction ([5]; 0.5 nM): 0.945 ± 0.064
- surviving fraction ([5]; 1 nM): 1.02 ± 0.076
- surviving fraction ([5]; 5 nM): 1.07 ± 0.024
- surviving fraction ([5]; 10 nM): 1.04 ± 0.038
- surviving fraction ([5]; 50 nM): 1.04 ± 0.032
- surviving fraction ([5]; 100 nM): 1.04 ± 0.05
- surviving fraction ([5]; 500 nM): 0.86 ± 0.064
- surviving fraction ([5]; 1000 nM): 0.318 ± 0.026
- surviving fraction ([6]; 0.5 nM): 1.06 ± 0.044
- surviving fraction ([6]; 1 nM): 1.08 ± 0.026
- surviving fraction ([6]; 5 nM): 1.12 ± 0.056
- surviving fraction ([6]; 10 nM): 1.09 ± 0.063
- surviving fraction ([6]; 50 nM): 1.03 ± 0.092
- surviving fraction ([6]; 100 nM): 1.05 ± 0.028
- surviving fraction ([6]; 500 nM): 1.03 ± 0.031
- surviving fraction ([6]; 1000 nM): 1 ± 0.087
- surviving fraction ([7]; 0.5 nM): 0.977 ± 0.059
- surviving fraction ([7]; 1 nM): 0.977 ± 0.069
- surviving fraction ([7]; 5 nM): 1.02 ± 0.064
- surviving fraction ([7]; 10 nM): 1.01 ± 0.07
- surviving fraction ([7]; 50 nM): 0.783 ± 0.093
- surviving fraction ([7]; 100 nM): 0.523 ± 0.021
- surviving fraction ([7]; 500 nM): 0.139 ± 0.015
- surviving fraction ([7]; 1000 nM): 0.106 ± 0.0065
- surviving fraction ([8]; 0.5 nM): 1.06 ± 0.023
- surviving fraction ([8]; 1 nM): 1.16 ± 0.059
- surviving fraction ([8]; 5 nM): 1.12 ± 0.038
- surviving fraction ([8]; 10 nM): 1.1 ± 0.03
- surviving fraction ([8]; 50 nM): 1.24 ± 0.06
- surviving fraction ([8]; 100 nM): 1.17 ± 0.071
- surviving fraction ([8]; 500 nM): 1.08 ± 0.031
- surviving fraction ([8]; 1000 nM): 1.04 ± 0.1
- surviving fraction ([9]; 0.5 nM): 0.852 ± 0.056
- surviving fraction ([9]; 1 nM): 0.814 ± 0.024
- surviving fraction ([9]; 5 nM): 0.832 ± 0.033
- surviving fraction ([9]; 10 nM): 0.788 ± 0.076
- surviving fraction ([9]; 50 nM): 0.423 ± 0.022
- surviving fraction ([9]; 100 nM): 0.37 ± 0.029
- surviving fraction ([9]; 500 nM): 0.17 ± 0.016
- surviving fraction ([9]; 1000 nM): 0.142 ± 0.0095
- surviving fraction ([10]; 0.5 nM): 1.07 ± 0.023
- surviving fraction ([10]; 1 nM): 1.11 ± 0.083
- surviving fraction ([10]; 5 nM): 1.06 ± 0.039
- surviving fraction ([10]; 10 nM): 1.02 ± 0.057
- surviving fraction ([10]; 50 nM): 1.09 ± 0.046
- surviving fraction ([10]; 100 nM): 1.054 ± 0.0092
- surviving fraction ([10]; 500 nM): 0.889 ± 0.017
- surviving fraction ([10]; 1000 nM): 0.843 ± 0.075
- surviving fraction ([11]; 0.5 nM): 0.959 ± 0.063
- surviving fraction ([11]; 1 nM): 0.892 ± 0.0062
- surviving fraction ([11]; 5 nM): 1 ± 0.045
- surviving fraction ([11]; 10 nM): 0.967 ± 0.037
- surviving fraction ([11]; 50 nM): 1.08 ± 0.055
- surviving fraction ([11]; 100 nM): 1.01 ± 0.017
- surviving fraction ([11]; 500 nM): 0.934 ± 0.049
- surviving fraction ([11]; 1000 nM): 0.917 ± 0.055
- surviving fraction ([12]; 0.5 nM): 1 ± 0.02
- surviving fraction ([12]; 1 nM): 1.09 ± 0.056
- surviving fraction ([12]; 5 nM): 1.14 ± 0.026
- surviving fraction ([12]; 10 nM): 1.07 ± 0.025
- surviving fraction ([12]; 500 nM): 0.676 ± 0.011
- surviving fraction ([12]; 1000 nM): 0.56 ± 0.046
- surviving fraction ([13]; 0.5 nM): 1.05 ± 0.066
- surviving fraction ([13]; 1 nM): 1.09 ± 0.08
- surviving fraction ([13]; 5 nM): 1.15 ± 0.03
- surviving fraction ([13]; 10 nM): 1.07 ± 0.045
- surviving fraction ([13]; 50 nM): 1.06 ± 0.06
- surviving fraction ([13]; 100 nM): 1.02 ± 0.083
- surviving fraction ([13]; 500 nM): 0.515 ± 0.039
- surviving fraction ([13]; 1000 nM): 0.47 ± 0.024
- surviving fraction ([14]; 0.5 nM): 0.904 ± 0.058
- surviving fraction ([14]; 10 nM): 0.98 ± 0.027
- surviving fraction ([14]; 50 nM): 0.971 ± 0.04
- surviving fraction ([14]; 100 nM): 0.926 ± 0.06
- surviving fraction ([14]; 500 nM): 0.568 ± 0.016
- surviving fraction ([14]; 1000 nM): 0.492 ± 0.021
